{"source": "patent US20040022780A1", "about": "“Serine protease and topical retinoid compositions useful for treatment of acne vulgarise and production of anti-aging effects” (priority 1997, published 2004)", "tested_on": "Rhino mouse skin", "experiment": "Histology after suboptimal trypsin, all-trans retinoic acid or both", "type": "in vivo", "conditions": "suboptimal dose alone: 0.005% (w/v) trypsin or 0.0005% (w/v) all-trans retinoic acid", "method": "A first set of Rhino mice of Example 1 were treated with suboptimal doses of the trypsin composition of Example 2. […] A second set of Rhino mice of Example 1 were treated with suboptimal concentrations of the all-trans retinoic acid composition of Example 2. A third set of Rhino mice of Example 1 were treated with both suboptimal doses of the trypsin composition of Example 2 and the all-trans retinoic acid composition of Example 2. In this third set of Rhino mice, the trypsin and all-trans retinoic acid treatments were each administered daily, but at different times (i.e. trypsin in the morning and all-trans retinoic acid in the afternoon). Mice were sacrificed and their skins were examined histologically with the procedure set forth in Example 3."}
{"smiles": "CC1=C(/C=C/C(C)=C/C=C/C(C)=C/C(=O)O)C(C)(C)CCC1", "note": "[all-trans retinoic acid, reference compound]", "values": [{"measurement": "skin histology of treatment given alone vs untreated skin", "value": "marked inprovement"}]}
